#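 Each compound was tested at five concentrations against cells in 96-well plates for 48 hours. At the TGI there is no net growth.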
# Tests used:
# Experiment in all cases: NCI tumour cell line growth inhibition, 48 h
# [1] = test system: 786-0 renal
# [2] = test system: A498 renal
# [3] = test system: A549 NSCLC
# [4] = test system: ACHN renal
# [5] = test system: CAKI-1 renal
# [6] = test system: CCRF-CEM leukemia
# [7] = test system: COLO 205 colon
# [8] = test system: DLD-1 colon
# [9] = test system: DMS 114 small cell lung
# [10] = test system: DMS 273 small cell lung
# [11] = test system: EKVX NSCLC
# [12] = test system: HCC-2998 colon
# [13] = test system: HCT-116 colon
# [14] = test system: HCT-15 colon
# [15] = test system: HL-60(TB) leukemia
# [16] = test system: HOP-18 NSCLC
# [17] = test system: HOP-62 NSCLC
# [18] = test system: HOP-92 NSCLC
# [19] = test system: HT29 colon
# [20] = test system: IGROV1 ovarian
# [21] = test system: K-562 leukemia
# [22] = test system: KM12 colon
# [23] = test system: KM20L2 colon
# [24] = test system: LOX IMVI melanoma
# [25] = test system: LXFL 529 NSCLC
# [26] = test system: M14 melanoma
# [27] = test system: M19-MEL melanoma
# [28] = test system: MALME-3M melanoma
# [29] = test system: MOLT-4 leukemia
# [30] = test system: NCI-H226 lung
# [31] = test system: NCI-H23 lung
# [32] = test system: NCI-H460 lung
# [33] = test system: NCI-H522 lung
# [34] = test system: OVCAR-3 ovarian
# [35] = test system: OVCAR-4 ovarian
# [36] = test system: OVCAR-5 ovarian
# [37] = test system: OVCAR-8 ovarian
# [38] = test system: RPMI-8226 leukemia
# [39] = test system: RXF 393 renal
# [40] = test system: RXF-631 renal
# [41] = test system: SF-268 CNS
# [42] = test system: SF-295 CNS
# [43] = test system: SF-539 CNS
# [44] = test system: SK-MEL-2 melanoma
# [45] = test system: SK-MEL-28 melanoma
# [46] = test system: SK-MEL-5 melanoma
# [47] = test system: SK-OV-3 ovarian
# [48] = test system: SN12C renal
# [49] = test system: SNB-19 CNS
# [50] = test system: SNB-75 CNS
# [51] = test system: SNB-78 CNS
# [52] = test system: SR leukemia
# [53] = test system: SW-620 colon
# [54] = test system: TK-10 renal
# [55] = test system: U251 CNS
# [56] = test system: UACC-257 melanoma
# [57] = test system: UACC-62 melanoma
# [58] = test system: UO-31 renal
# [59] = test system: XF 498 CNS
# [60] = test system: BT-549 breast
# [61] = test system: DU-145 prostate
# [62] = test system: HS 578T breast
# [63] = test system: MCF7 breast
# [64] = test system: MDA-MB-231 breast
# [65] = test system: MDA-MB-435
# [66] = test system: MDA-N
# [67] = test system: NCI/ADR-RES ovarian
# [68] = test system: P388 leukemia
# [69] = test system: P388/ADR leukemia
# [70] = test system: PC-3 prostate
# [71] = test system: SN12K1 renal
# [72] = test system: T-47D breast
structure (smiles),measurement,setting,value
COc1ccc(CCc2cc(OC)cc(OC)c2)cc1,TGI,[1],> 100 µM
same,TGI,[2],> 100 µM
same,TGI,[3],> 100 µM
same,TGI,[4],> 100 µM
same,TGI,[5],> 100 µM
same,TGI,[6],96.8 µM
same,TGI,[7],> 60.5 µM
same,TGI,[8],> 100 µM
same,TGI,[9],24.6 µM
same,TGI,[10],> 100 µM
same,TGI,[11],> 100 µM
same,TGI,[12],51.2 µM
same,TGI,[13],> 100 µM
same,TGI,[14],> 100 µM
same,TGI,[15],> 84.5 µM
same,TGI,[16],> 100 µM
same,TGI,[17],> 100 µM
same,TGI,[18],> 100 µM
same,TGI,[19],47.9 µM
same,TGI,[20],> 100 µM
same,TGI,[21],71.8 µM
same,TGI,[22],> 100 µM
same,TGI,[23],> 58 µM
same,TGI,[24],> 100 µM
same,TGI,[25],> 100 µM
same,TGI,[26],> 100 µM
same,TGI,[27],> 100 µM
same,TGI,[28],> 83.7 µM
same,TGI,[29],56.5 µM
same,TGI,[30],> 100 µM
same,TGI,[31],> 100 µM
same,TGI,[32],> 100 µM
same,TGI,[33],> 41 µM
same,TGI,[34],> 65.9 µM
same,TGI,[35],> 100 µM
same,TGI,[36],> 100 µM
same,TGI,[37],> 100 µM
same,TGI,[38],94.8 µM
same,TGI,[39],63.8 µM
same,TGI,[40],> 72.7 µM
same,TGI,[41],> 100 µM
same,TGI,[42],> 100 µM
same,TGI,[43],> 100 µM
same,TGI,[44],> 62 µM
same,TGI,[45],> 100 µM
same,TGI,[46],> 87 µM
same,TGI,[47],> 100 µM
same,TGI,[48],> 100 µM
same,TGI,[49],> 100 µM
same,TGI,[50],> 81.3 µM
same,TGI,[51],> 100 µM
same,TGI,[52],> 100 µM
same,TGI,[53],> 67.3 µM
same,TGI,[54],> 100 µM
same,TGI,[55],> 100 µM
same,TGI,[56],> 100 µM
same,TGI,[57],> 100 µM
same,TGI,[58],> 100 µM
same,TGI,[59],83.8 µM
CCOC(=O)CCn1ncc(Cl)c(Cl)c1=O,TGI,[1],34.7 µM
same,TGI,[2],39.6 µM
same,TGI,[3],32.9 µM
same,TGI,[4],33.7 µM
same,TGI,[5],10.8 µM
same,TGI,[6],9.76 µM
same,TGI,[7],25.6 µM
same,TGI,[8],21.5 µM
same,TGI,[9],4.3 µM
same,TGI,[10],27 µM
same,TGI,[11],36 µM
same,TGI,[12],10.4 µM
same,TGI,[13],24.2 µM
same,TGI,[14],4.69 µM
same,TGI,[15],6.49 µM
same,TGI,[16],11.7 µM
same,TGI,[17],39.8 µM
same,TGI,[18],26.2 µM
same,TGI,[19],14.2 µM
same,TGI,[20],26 µM
same,TGI,[21],8.52 µM
same,TGI,[22],20 µM
same,TGI,[23],31.4 µM
same,TGI,[24],25.7 µM
same,TGI,[25],10.5 µM
same,TGI,[26],14.5 µM
same,TGI,[27],8.35 µM
same,TGI,[28],34.4 µM
same,TGI,[29],11.7 µM
same,TGI,[30],25.3 µM
same,TGI,[31],4.66 µM
same,TGI,[32],30.3 µM
same,TGI,[33],0.834 µM
same,TGI,[34],10.8 µM
same,TGI,[35],2.9 µM
same,TGI,[36],32.1 µM
same,TGI,[37],11.9 µM
same,TGI,[38],15.3 µM
same,TGI,[39],29 µM
same,TGI,[40],7.92 µM
same,TGI,[41],21.6 µM
same,TGI,[42],34.2 µM
same,TGI,[43],27.3 µM
same,TGI,[44],26.4 µM
same,TGI,[45],6.58 µM
same,TGI,[46],25.3 µM
same,TGI,[47],42.5 µM
same,TGI,[48],29.3 µM
same,TGI,[49],26.7 µM
same,TGI,[50],29.6 µM
same,TGI,[51],22.1 µM
same,TGI,[52],7.28 µM
same,TGI,[53],9.7 µM
same,TGI,[54],34.5 µM
same,TGI,[55],17.1 µM
same,TGI,[56],26.5 µM
same,TGI,[57],19.2 µM
same,TGI,[58],29.3 µM
same,TGI,[59],37.9 µM
CC(C)Cc1ccc(C(C)CC2=CCC(CN(C)C)C2=O)cc1 (centres undefined),TGI,[1],3.34 µM
same,TGI,[2],33.4 µM
same,TGI,[3],35.2 µM
same,TGI,[4],30.4 µM
same,TGI,[60],38.9 µM
same,TGI,[5],3.28 µM
same,TGI,[6],12.6 µM
same,TGI,[7],6.77 µM
same,TGI,[8],5.61 µM
same,TGI,[9],10.9 µM
same,TGI,[10],14.9 µM
same,TGI,[61],30.2 µM
same,TGI,[11],33.9 µM
same,TGI,[12],17 µM
same,TGI,[13],11.1 µM
same,TGI,[14],7.91 µM
same,TGI,[15],4.47 µM
same,TGI,[16],32.6 µM
same,TGI,[17],36.4 µM
same,TGI,[18],8.41 µM
same,TGI,[62],40.6 µM
same,TGI,[19],17.5 µM
same,TGI,[20],24 µM
same,TGI,[21],4.04 µM
same,TGI,[22],10.7 µM
same,TGI,[23],21.2 µM
same,TGI,[24],9.84 µM
same,TGI,[25],3.11 µM
same,TGI,[26],17.2 µM
same,TGI,[27],13.8 µM
same,TGI,[28],13.1 µM
same,TGI,[63],2.78 µM
same,TGI,[64],22.5 µM
same,TGI,[65],20.5 µM
same,TGI,[66],17.9 µM
same,TGI,[29],5.8 µM
same,TGI,[30],33.7 µM
same,TGI,[31],28.2 µM
same,TGI,[32],48.9 µM
same,TGI,[33],8.84 µM
same,TGI,[67],43.7 µM
same,TGI,[34],24.9 µM
same,TGI,[35],41.6 µM
same,TGI,[36],29.9 µM
same,TGI,[37],20.3 µM
same,TGI,[68],6.34 µM
same,TGI,[69],> 100 µM
same,TGI,[70],28.4 µM
same,TGI,[38],5.24 µM
same,TGI,[39],14.3 µM
same,TGI,[40],30.5 µM
same,TGI,[41],30 µM
same,TGI,[42],32.1 µM
same,TGI,[43],30.9 µM
same,TGI,[44],26.9 µM
same,TGI,[45],21.9 µM
same,TGI,[46],28.9 µM
same,TGI,[47],31.7 µM
same,TGI,[48],20 µM
same,TGI,[71],11.7 µM
same,TGI,[49],29.5 µM
same,TGI,[50],29.5 µM
same,TGI,[51],14.7 µM
same,TGI,[52],3.96 µM
same,TGI,[53],4.48 µM
same,TGI,[72],4.7 µM
same,TGI,[54],> 22.7 µM
same,TGI,[55],13.6 µM
same,TGI,[56],26.9 µM
same,TGI,[57],23 µM
same,TGI,[58],30.1 µM
